Source: patent US20260138981A1, “DIHYDROFOLATE REDUCTASE INHIBITORS FOR ANTI-BIOTIC RESISTANT INFECTIONS” (THE TRUSTEES OF PRINCETON UNIVERSITY, priority 2022, published 2026)

What was measured:
P. aeruginosa PA14 [1] = experiment: Drug accumulation assay (intrabacterial drug metabolism, LC/MS); assay type: cell-based; conditions: PA14, 5 μM, compared with TMP
Protocol: FIG. 1G provides intrabacterial drug metabolism (IBDM) of PA14 treated with 5 μM fluorofolin or trimethoprim. Samples were taken at time t=0, 30, 60, and 90 minutes. Data represent mean±SD of triplicate technical replicates.
FIG. 1H provides cumulative accumulation of drugs over 90 mins by AUC of IBDM curves. Data represent mean±SD of triplicate technical replicates. (P value≤0.0001) t-test using Prism 9.
Overnight PA14 cultures were back-diluted to early-mid exponential phase (OD600=0.4-0.6). The assay was initiated with treatment of the culture with either 5.0 μM fluorofolin or 5.0 μM trimethoprim. A DMSO treated culture was utilized as a control. […] The resulting cell lysate samples were analyzed utilizing verapamil as an internal standard. […]
Compound accumulation was realized using the selective ion monitoring (SIM) mode to quantify peak integration for a compound and the internal standard using their respective m/z values. Compound peaks were confirmed using a scanning mode that detected the compound peak using an m/z range of 100-1000. Peak area integration values were determined and a ratio of the peak area for the compound to the peak area for the verapamil internal standard was calculated and compound concentration was then determined from the compound calibration curve. […]

[2] = system: PA14 mutants with disruptions in mexA, mexB and oprM; experiment: MIC against MexAB-OprM transposon mutants; assay type: cell-based, P. aeruginosa; conditions: oprM transposon mutants vs wildtype PA14
Protocol: FIG. 1I is the minimum inhibitory concentration of fluorofolin or trimethoprim against transposon mutants for each component of the MexAB-OprM efflux pump. MIC against wildtype PA14 was calculated to control for each drug stock. MIC values are representative of two independent replicates.
P. aeruginosa PA14 transposon mutants were generated by the Ausubel Lab (http://ausubellab.mgh.harvard.edu/cgi-bin/pa14/home.cgi). The MICs of fluorofolin and TMP against strains with disrupted MexA, MexB, and OprM were determined as above and compared to the parental strain. As transposon mutants in MexB were represented twice in this collection, the MIC was confirmed across both mutant strains.

E. coli MG1655 = experiment: Growth with TMI supplementation; assay type: cell-based; conditions: E. coli MG1655, fluorofolin 2×MIC, 0.3 mM thymine, methionine, inosine
Protocol: (§1) FIGS. 3A and 3B characterize the growth of E. coli MG1655 and P. aeruginosa PA14 respectively in 0.3 mM thymine, methionine, and inosine (TMI) supplemented media and treated with fluorofolin at 2×MIC or DMSO. Curves represent optical at 600 nm (OD600) of 2 biological replicates. Mean±SD are shown.
(§2) Where listed, growth media were prepared according manufacturer recommendations: LB Broth and LB Broth supplemented with 0.3 mM thymine (BD Biosciences 244610, Alfa Aesar A15879), 0.3 mM methionine (Sigma-Aldrich M9625), 0.3 mM inosine (EMD Millipore 4060), Mueller Hinton II Broth (Cation-Adjusted)/(CAMHB) (BD 212322) or 0.3 mM thymidine (Sigma-Aldrich T1895), Gutnick Minimal Media (1.0 g/L K2SO4, 13.5 g/L K2HPO4, 4.7 g/L KH2PO4, 0.1 g/L of MgSO4-7H2O, 10 mM NH4Cl as a nitrogen source, and 0.4% w/v glucose as a carbon source)^62.

P. aeruginosa PA14 [3] = experiment: Growth with TMI supplementation; assay type: cell-based; conditions: P. aeruginosa PA14, fluorofolin 2×MIC, 0.3 mM TMI
Protocol: as §1, §2

E. coli lptd34213 = experiment: Growth with thymidine supplementation; assay type: cell-based; conditions: fluorofolin 50 μg/mL, 0.3 mM thymidine; also with SMX
Protocol: FIG. 6F quantifies P. aeruginosa PA14 or E. coli lptd4213 treated with fluorofolin 50 μg/mL in the presence or absence of 0.3 mM thymidine.
FIG. 6G quantifies E. coli lptd4213 treated with fluorofolin 50 μg/mL and SMX (78.1 μg/mL) in the presence or absence of 0.3 mM thymidine or 0.3 mM TMI supplementation, Curves represent optical at 600 nm (OD600) of 2 biological replicates. Mean±SD are shown.
as §2

[4] = system: P. aeruginosa PA01 and ATTC 27853, 5 ESKAPE pathogens; experiment: Growth inhibition of bacterial panel (summary statement); conditions: PA01, ATTC 27853 and all 5 ESKAPE pathogens tested
Protocol: Overnight cultures were diluted 1:150 in LB Broth and added to a 96-well plate. Antibiotics were serially diluted 1:2 and added to columns of the 96-well plate and grown at 37° C. with continuous shaking. Cell growth was measured by optical density (OD600).
4-8 bacterial colonies of strains of interest were vortexed in saline and adjusted to an OD600 of 0.2. Strains were diluted 1:200 into CAMHB media into 96-well plates. Antibiotics were serially diluted 1:3 in DMSO, and 1 μL of each dilution was added to bacteria. The plates were incubated for 18-20 hours at 37° C. before observation.

Question: Nc1nc(N)c2c(ccc3c2ccn3Cc2ccnc(F)c2)n1 [fluorofolin] was tested. Which “rate of accumulation in P. aeruginosa” value (P. aeruginosa PA14 [1]; 0-90 min) did it give?
Answer: more rapidly

Question: What about the “cumulative accumulation (AUC of IBDM curves)” value (P. aeruginosa PA14 [1]; over 90 mins) of the same compound?
Answer: higher levels

Question: And the “change of MIC in efflux pump mutants” value [2]?
Answer: did not decrease their MIC against fluorofolin to the same extent

Question: What about the “rescue of growth inhibition by TMI supplementation” value (E. coli MG1655) of the same compound?
Answer: could also be rescued

Question: What about the “rescue of growth inhibition by TMI supplementation” value (P. aeruginosa PA14 [3]) of the same compound?
Answer: unable to rescue

Question: And the “rescue of growth inhibition by thymidine supplementation alone” value (E. coli lptd34213)?
Answer: Rescue from fluorofolin inhibition was also shown

Question: What about the concentration inhibiting growth [4] of the same compound?
Answer: less than 50 μg/mL
